Results taken from patent US5854241A, “Pyrido[3,2,1-I,J][3,1]benzoxazine derivatives” (Bayer Aktiengesellschaft, priority 1994, dated 1998).
Values after ≈ are worked out from the molar mass of the structure shown. Like-named read-outs stand apart in the source and are kept apart here.

Columns and labels:
Assay type in all cases: cell-based
[1] = test system: E. coli; assay: MIC by serial agar dilution, E. coli; conditions: Escherichia coli, 20 h, Iso-Sensitest agar, 37° C., approx. 20 hours
Protocol: (§1) The minimum inhibitory concentrations (MICs) were determined by serial dilution methods using Iso-Sensitest agar (Oxoid). For each test substance, a series of agar plates was prepared whose active compound concentrations decreased as the dilution was doubled. The agar plates were inoculated using a multipoint inoculator (Denley). The cultures used for inoculation were overnight cultures of the pathogen which had previously been diluted to such an extent that each inoculation point contained approximately 10^4 colony-forming units. The inoculated agar plates were incubated at 37° C., and the microbial growth was read off after approximately 20 hours.
(§2) The following table lists the MIC values of some of the compounds according to the invention in comparison with 9-fluoro-3-methyl-10-(4-methyl-1-piperazinyl)-7-oxo-1H,3H,7H-pyrido[3,2,1- i,j]-[3,1]-benzoxazine-6-carboxylic acid (EP-O 373 531) as reference compound.

[2] = test system: Klebsiella pneumoniae; assay: MIC by serial agar dilution, Klebsiella pneumoniae; conditions: Klebsiella pneumoniae strain 2363 Ge; Iso-Sensitest agar, 37° C., approx. 20 hours
Protocol: as §1, §2

[3] = test system: Salmonella; assay: MIC by serial agar dilution, Salmonella; conditions: Salmonella strain 1 Fr; Iso-Sensitest agar, 37° C., approx. 20 hours
Protocol: as §1, §2

[4] = test system: Enterobacter; assay: MIC by serial agar dilution, Enterobacter; conditions: Enterobacter strain 0,4 Ge 02-33; Iso-Sensitest agar, 37° C., approx. 20 hours
Protocol: as §1, §2

[5] = test system: Staphylococcus aureus; assay: MIC by serial agar dilution, Staphylococcus aureus; conditions: 20 h, Iso-Sensitest agar, 37° C., approx. 20 hours
Protocol: as §1, §2

[6] = test system: Pseudomonas; assay: MIC by serial agar dilution, Pseudomonas; conditions: Pseudomonas strain BS 698 TGD; Iso-Sensitest agar, 37° C., approx. 20 hours
Protocol: as §1, §2

[7] = E. coli strain Z 431 Lit, read-out: MIC
[8] = Staphylococcus aureus strain 3781 Ge
[9] = Staphylococcus aureus strain Z 2 Lit

Compound: CNC1C=CCC2CN(c3c(F)cc4c(=O)c(C(=O)O)cn5c4c3COC5C)CC21 (centres unmarked) [Example 5, 9-Fluoro-3-methyl-10-(2-methylamino-8-azabicyclo[4.3.0]non-3-en-8-yl)-7-oxo-1H,3H,7H-pyrido [3,2,1-i,j][3,]benzoxazine-6-carboxylic acid]
- MIC ([1]; E. coli strain 21 Bui): 4 µg/mL (≈ 9.67 µM)
- MIC [1, 7]: ≤ 0.015 µg/mL
- MIC [2]: 0.12 µg/mL (≈ 0.29 µM)
- MIC [3]: 0.12 µg/mL (≈ 0.29 µM)
- MIC [4]: 0.12 µg/mL (≈ 0.29 µM)
- MIC [5, 8]: 0.12 µg/mL (≈ 0.29 µM)
- MIC [5, 9]: 0.12 µg/mL (≈ 0.29 µM)
- MIC [6]: 16 µg/mL (≈ 38.7 µM)

Compound: CC1OCc2c(N3CC4CC=CC(N)C4C3)c(F)cc3c(=O)c(C(=O)O)cn1c23 (centres unmarked) [Example 1, 10-(2-Amino-8-azabicyclo[4,3,0]non-3-en-8-yl)-9-fluoro-3-methyl-7-oxo-1H,3H ,7H-pyrido-[3,2,1-i,j][3,1]benzoxazine6-carboxylic acid]
- MIC ([1]; E. coli strain 21 Bui): 4 µg/mL (≈ 10 µM)
- MIC [1, 7]: 0.015 µg/mL (≈ 0.0376 µM)
- MIC [2]: 0.06 µg/mL (≈ 0.15 µM)
- MIC [3]: 0.06 µg/mL (≈ 0.15 µM)
- MIC [4]: 0.25 µg/mL (≈ 0.626 µM)
- MIC [5, 8]: 0.12 µg/mL (≈ 0.3 µM)
- MIC [5, 9]: 0.12 µg/mL (≈ 0.3 µM)
- MIC [6]: 4 µg/mL (≈ 10 µM)

Compound: CC1OCc2c(N3CCN(C)CC3)c(F)cc3c(=O)c(C(=O)O)cn1c23 (centres unmarked) [Reference, 9-fluoro-3-methyl-10-(4-methyl-1-piperazinyl)-7-oxo-1H,3H,7H-pyrido[3,2,1-i,j]-[3,1]-benzoxazine-6-carboxylic acid, reference compound]
- MIC ([1]; E. coli strain 21 Bui): 0.05 µg/mL (≈ 0.138 µM)
- MIC ([1]; E. coli strain Z 431 Lit): 0.05 µg/mL (≈ 0.138 µM)
- MIC [2]: 0.5 µg/mL (≈ 1.38 µM)
- MIC [3]: 1 µg/mL (≈ 2.77 µM)
- MIC [4]: 1 µg/mL (≈ 2.77 µM)
- MIC [5, 8]: 128 µg/mL (≈ 354 µM)
- MIC [5, 9]: 16 µg/mL (≈ 44.3 µM)
- MIC [6]: 64 µg/mL (≈ 177 µM)

Compound: CC1OCc2c(N3CC4CCCNC4C3)c(F)cc3c(=O)c(C(=O)O)cn1c23 (centres unmarked) [Example 4, 10-(2.8-Diazabicyclo[4,3,0]nonan-8-yl)-9-fluoro-3-methyl-7-oxo-1H,3H,7H-pyr ido-[3,2,1-i,j][3,1]benzoxazine-6-carboxylic acid]
- MIC ([1]; E. coli strain 21 Bui): 4 µg/mL (≈ 10.3 µM)
- MIC [1, 7]: 0.06 µg/mL (≈ 0.155 µM)
- MIC [2]: 0.12 µg/mL (≈ 0.31 µM)
- MIC [3]: 0.25 µg/mL (≈ 0.645 µM)
- MIC [4]: 0.12 µg/mL (≈ 0.31 µM)
- MIC [5, 8]: 8 µg/mL (≈ 20.6 µM)
- MIC [5, 9]: 0.5 µg/mL (≈ 1.29 µM)
- MIC [6]: 8 µg/mL (≈ 20.6 µM)
